Assay results published in publication PMC2074348, “Preclinical in vivo efficacy of two 9-dihydrotaxane analogues against human and murine tumours” (British Journal of Cancer, 1996).
Converted amounts (≈) assume the structure as drawn. Where two headings read alike, the source gives them in different places.

Key:
murine M109 solid tumour = assay: In vivo efficacy vs subcutaneous M109 solid tumour; details: for Days (1.0 g): days to reach mean tumour mass = 1.0 g ± s.d. / Delay (1.0 g): delay to reach mean tumour mass = 1.0 g, compared with untreated / Per cent cures (mice with no palpable tumours, day 60) / Per cent toxicity / TWI (per cent tumour weight inhibition when untreated control mean = 1.0 g): q.d., i.p., days 1, 5, 9 after inoculation, s.c. tumour, BDF1 mice
P388 = assay: In vitro tumour cell cytotoxicity, colorimetric MTT assay, 72 h; type: cell-based, murine; details: 72 h exposure
[1] = test system: BDF mice bearing B16F10 ascites tumours; details: […]
B16F10 = assay: In vitro tumour cell cytotoxicity, colorimetric MTT assay, 72 h; type: cell-based, murine; details: 72 h exposure
A549 = assay: as above; type: cell-based, human; details: 72 h exposure
[2] = test system: murine B16F10 melanoma ascites tumour; assay: In vivo efficacy vs i.p. B16F10 melanoma ascites tumour
[3] = test system: human MX-1 xenograft solid tumour
[4] = Pharmacokinetics following i.p. dosing in mice
HT-29 = assay: In vitro tumour cell cytotoxicity, colorimetric MTT assay, 72 h; type: cell-based, human; details: 72 h exposure
[5] = test system: A549, HT-29, B16F10 and P388 tumour cells; assay: In vitro cytotoxicity across the four tumour cell lines, compared with paclitaxel; type: cell-based; details: human and murine tumour cells
[6] = at non-toxic doses, i.p. once daily for 5 consecutive days
[7] = dose 25 mg kg-1 per day, q.d., i.p., days 1-5 after inoculation, BDF1 mice
[8] = dose 50 mg kg-1 per day, q.d., i.p., days 1-5 after inoculation, BDF1 mice
[9] = dose 100 mg kg-1 per day, q.d., i.p., days 1-5 after inoculation, BDF1 mice
[10] = dose 12.5 mg kg-1 per day, q.d., i.p., days 1-5 after inoculation, s.c. xenograft, nude mice
[11] = dose 25 mg kg-1 per day, q.d., i.p., days 1-5 after inoculation, s.c. xenograft, nude mice
[12] = dose 50 mg kg-1 per day, q.d., i.p., days 1-5 after inoculation, s.c. xenograft, nude mice
[13] = dose 100 mg kg-1 per day, q.d., i.p., days 1-5 after inoculation, s.c. xenograft, nude mice
[14] = once daily on days 1-5 after inoculation
[15] = 20 mg kg-1 i.p., male CD-1 mice, plasma (Table VI)

CC(=O)OC12COC1CC(O)C1(C)C(O)C(O)C3=C(C)C(OC(=O)C(O)C(NC(=O)c4ccccc4)c4ccccc4)CC(O)(C(OC(=O)c4ccccc4)C21)C3(C)C (stereo not shown) [Compound A-86415, 10-deacetyl-9-dihydrotaxol]
Days (1.0 g): days to reach mean tumour mass = 1.0 g ± s.d. (murine M109 solid tumour; dose 25 mg kg-1 per day): 12.0+0 days | Delay (1.0 g): delay to reach mean tumour mass = 1.0 g, compared with untreated (murine M109 solid tumour; dose 25 mg kg-1 per day): 0 days | Per cent cures (mice with no palpable tumours, day 60) (murine M109 solid tumour; dose 25 mg kg-1 per day): 0% | Per cent toxicity (murine M109 solid tumour; dose 25 mg kg-1 per day): 0% | TWI (per cent tumour weight inhibition when untreated control mean = 1.0 g) (murine M109 solid tumour; dose 25 mg kg-1 per day): 10% | Days (1.0 g): days to reach mean tumour mass = 1.0 g ± s.d. (murine M109 solid tumour; dose 50 mg kg-1 per day): 12.0+0 days | Delay (1.0 g): delay to reach mean tumour mass = 1.0 g, compared with untreated (murine M109 solid tumour; dose 50 mg kg-1 per day): 0 days | Per cent cures (mice with no palpable tumours, day 60) (murine M109 solid tumour; dose 50 mg kg-1 per day): 0% | Per cent toxicity (murine M109 solid tumour; dose 50 mg kg-1 per day): 0% | TWI (per cent tumour weight inhibition when untreated control mean = 1.0 g) (murine M109 solid tumour; dose 50 mg kg-1 per day): 19% | Delay (1.0 g): delay to reach mean tumour mass = 1.0 g, compared with untreated (murine M109 solid tumour; dose 100 mg kg-1 per day): 5.1 days | Per cent cures (mice with no palpable tumours, day 60) (murine M109 solid tumour; dose 100 mg kg-1 per day): 0% | Per cent toxicity (murine M109 solid tumour; dose 100 mg kg-1 per day): 0% | TWI (per cent tumour weight inhibition when untreated control mean = 1.0 g) (murine M109 solid tumour; dose 100 mg kg-1 per day): 79% | Optimal dose (murine M109 solid tumour; i.p. every fourth day for three total injections (days 1, 5, 9 after inoculation)): 100 mg kg-1 injection | Delay in solid tumour growth to 1 g (murine M109 solid tumour; paclitaxel at a non-toxic dose): 5.1 days | IC50 (P388): 0.014 µg/mL (≈ 0.0172 µM) | MTD (q.d. days 1-5) [1]: greater than 100 mg kg-1 per day | IC50 (B16F10): 0.039 µg/mL (≈ 0.0479 µM) | IC50 (A549): 0.011 µg/mL (≈ 0.0135 µM) | Cure rate at optimal non-toxic dose [2, 6]: 10% | Optimal increase in life span (ILS) [2, 6]: 83% | %ILS (group mean increase in lifespan) [2, 7]: 52% | Per cent cures (mice alive 60 days after inoculation) [2, 7]: 0% | Per cent toxicity (mice with premature death) [2, 7]: 0% | %ILS (group mean increase in lifespan) [2, 8]: 83% | MST (mean survival time ± s.d.) [2, 8]: 36.1 ± 4.5 days | Per cent cures (mice alive 60 days after inoculation) [2, 8]: 10% | Per cent toxicity (mice with premature death) [2, 8]: 0% | %ILS (group mean increase in lifespan) [2, 9]: 77% | Per cent cures (mice alive 60 days after inoculation) [2, 9]: 0% | Per cent toxicity (mice with premature death) [2, 9]: 0% | Efficacy against murine B16 ascites tumour compared with paclitaxel ([2]; mouse, in vivo): as effective as paclitaxel | Delay (1.0 g) (footnote: delay to reach mean tumour mass = 0.5 g, compared with untreated) [3, 10]: 0 days | Per cent cures (mice with no palpable tumours, day 60) [3, 10]: 20% | Per cent toxicity [3, 10]: 0% | TWI (per cent tumour weight inhibition when untreated control mean = 0.5 g) [3, 10]: 27% | Days to 1.0 g (footnote: days to reach mean tumour mass = 0.5 g ± s.d.) [3, 11]: 33.3 + 7.6 days | Delay (1.0 g) (footnote: delay to reach mean tumour mass = 0.5 g, compared with untreated) [3, 11]: 5.4 days | Per cent cures (mice with no palpable tumours, day 60) [3, 11]: 10% | Per cent toxicity [3, 11]: 0% | TWI (per cent tumour weight inhibition when untreated control mean = 0.5 g) [3, 11]: 73% | Delay (1.0 g) (footnote: delay to reach mean tumour mass = 0.5 g, compared with untreated) [3, 12]: 14.7 days | Per cent cures (mice with no palpable tumours, day 60) [3, 12]: 30% | Per cent toxicity [3, 12]: 0% | TWI (per cent tumour weight inhibition when untreated control mean = 0.5 g) [3, 12]: 99% | Delay (1.0 g) (footnote: delay to reach mean tumour mass = 0.5 g, compared with untreated) [3, 13]: 33.1 days | Per cent cures (mice with no palpable tumours, day 60) [3, 13]: 70% | Per cent toxicity [3, 13]: 0% | TWI (per cent tumour weight inhibition when untreated control mean = 0.5 g) [3, 13]: 100% | Cure rate [3, 14]: 70% | Delay in tumour growth compared with untreated controls [3, 14]: 33 days | t1/2 ([4]; 20 mg kg-1 i.p., male CD-1 mice, plasma): 2.8 h | Cmax [4, 15]: 11.19 ig ml-1 | Tmax [4, 15]: 1.40 h | AUC ([4]; 20 mg kg-1 i.p., male CD-1 mice, plasma, 0-12 h, trapezoidal (Table VI)): 29.81 ig per h ml-1 | AUC value (rounded) ([4]; 20 mg kg-1 i.p., mice, plasma): 30 jg h-1 ml-1 | Cmax (rounded) ([4]; 20 mg kg-1 i.p., mice, plasma): 11 jg ml-1 | Serum concentrations compared with paclitaxel ([4]; at equal dosages): less than paclitaxel | IC50 (HT-29): 0.0019 µg/mL (≈ 0.00233 µM) | In vitro potency compared with paclitaxel [5]: generally less than that of paclitaxel
